This note sets out measurements from patent publication US11584712B2, “Alkylamine-substituted perthiocarbamates as dual precursors to hydropersulfide and carbonyl sulfide” (The Johns Hopkins University, priority 2020, dated 2023).

Entries after “also recorded” stand apart in the source; their conditions may differ.

A short description of data set [1]: RSSH generation in the presence of glutathione by UPLC-MS. The data set is classed as physicochemical. The procedure:
The reaction mixture was quenched with 1% formic acid and analyzed by UPLC-MS. Under these conditions, 42±1 μM of 2b formation is observed. RSSH-derived symmetrical dialkyl polysulfide labeled as S3 and S4 (R^1SSnSR^1, n=1-2), and unsymmetrical dialkyl polysulfide labeled as ′S2 to ′S4 (R^1SSnSR^3, n=0-2) formation are observed. 4-Hydroxyphenyl acetamide, labeled as asterisk, is used as internal standard in these experiments;

Data set [2] has as its system H9c2 cells. Nature of the data set: Cytotoxicity study with SYTOX Green nucleic acid stain. The data set is classed as cell-based, rat. To be noted: 24 h exposure, 0-150 μM. On the procedure:
H9c2(2-1) embryonic rat heart myoblasts were obtained from the American Type Culture Collection. Cells were grown in Dulbecco's […] (DMEM), supplemented with fetal bovine serum (FBS) 10%, penicillin 100 U/mL and streptomycin 100 μg/mL. They were propagated in T75-flasks, split before reaching 70-80% confluence (usually every day or every second day), and used within 11 passages. Cells were passaged to tissue culture treated 96-well microtiter plates at the specified density in 180 μL volumes and incubated for 24 h.
Cells were seeded at a density of 1×10^4 cells/well. […] Then, 100 μL of media containing 3 μM SYTOX™ Green nucleic acid stain (Invitrogen) was added and the cells were incubated for 2 h before fluorescence readings were obtained at 485Ex/538Em (Step 1). Finally, an additional 100 μL of media containing 3 μM SYTOX™ and 0.2% Triton X-100 was added in order to permeabilize all cells and incubated for 1 h before fluorescence values measured (Step 2). The relative % cells surviving was calculated as a 100% minus the ratio of the fluorescence value of Step 1 over Step 2 (% cells surviving=100%−(FL538 (Step 1)/FL538(Step 2)).
Cells were seeded at a density of 1×10^4 cells/well. […] The relative % cells surviving was calculated as a 100% minus the ratio of the fluorescence value of Step 1 over Step 2 (% cells surviving=100%−(FL538 (Step 1)/FL538(Step 2)).

Data set [3] concerns H9c2 cells. Nature of the data set: H9c2 cell protection from H2O2-mediated oxidative stress, Cell Counting Kit-8 (CCK-8). The data set is classed as cell-based, rat. The following applies: 2 h pretreatment (7b 50, 100, 150 μM; byproduct 150 μM), then H2O2 200 μM 2 h. Background: Tetrazolium assays rely on reduction of a dye to a coloured formazan, in cell work by metabolically active cells.
Procedure: Cells were seeded at a density of 5×10^3 cells/well. After 24 h, precursor 7b or byproduct 2b was added at 20 μL volumes using DMSO:H2O (<0.01% DMSO as the vehicle). Cells were incubated for 2 h before media was removed and the cells gently washed with PBS (pH 7.4). Then, 180 μL of fresh media and 20 μL H2O2 diluted into H2O were added and cells were incubated for an additional 2 h. At the completion of H2O2 exposure, each well is carefully washed 3 times with PBS (pH 7.4) before adding 100 μL of media, without-FBS, containing 10% v/v CCK-8 (Dojindo) and incubated for 3 h prior to obtaining absorbance values at 450 nm. The relative % viability was calculated as 100 times the ratio of the Abs450 (pretreated, H2O2-exposed) over Abs450 (vehicle-treated, non H2O2-exposed).

Data set [4] relates to isolated-perfused murine heart. Kind of data set: Isolated perfused heart (Langendorff) ischemia-reperfusion, infarct size by TTC staining. To be noted: ex vivo mouse heart, 20 min global ischemia, 100 μM infused first 7 min of 90 min reperfusion; KH control 42%. From the text:
Male C57BL/6J mice obtained from Jackson Laboratories (Bar Harbor, Me., USA) were used for all experiments. Mice were between 12 and 14 weeks of age at the time of experimentation. All animals received humane care in compliance with the “Principles of Laboratory Animal Care” formulated by the National Society for Medical Research and the “Guide for the Care and Use of Laboratory Animals” published by the US National Institutes of Health. The Animal Care and Use Committee from Johns Hopkins University approved of this study.
After anticoagulation with heparin and cervical dislocation, a thoracotomy was performed and the heart was quickly excised and placed in ice-cold Krebs-Henseleit buffer (in mmol/L: 11.1 D-glucose, 1.2 MgSO4, 1.2 KH2PO4, 4.7 KCl, 118 NaCl, 2 CaCl2), 25 NaHCO3). The aorta was cannulated, and the heart was perfused with Krebs-Henseleit buffer (oxygenated with 95% O2/5% CO2 and maintained at pH 7.4) in retrograde fashion at a constant pressure of 80 mm/Hg at 37° C. After baseline equilibration for 20 min, mouse hearts were subjected to 20 min of no-flow global ischemia followed by 90 min of reperfusion. Pharmacological postconditioning with 7b (100 μM) was performed at the onset of reperfusion for 7 min. Hearts were then reperfused for a total of 90 min. Control hearts received no pharmacological postconditioning. […]

On to `COC(=O)C(NC(C)=O)C(C)(C)SSC(=O)N(C)CCN` (centres unmarked) [Precursor 7b, 2-(((3-acetamido-4-methoxy-2-methyl-4-oxobutan-2-yl)disulfannecarbonyl)(methyl)amino)ethan-1-aminium], for which the “byproduct 2b formation” value in data set [1] (7b 100 μM, glutathione 500 μM, pH 7.4 ammonium bicarbonate 50 mM with DTPA, 37° C., 45 min) came to 42 ± 1 µM. The “yield of byproduct 2b” value in data set [1] (in the presence of GSH, pH 7.4) is given as 42%. Moreover, the “cytotoxicity toward H9c2 cells” value with H9c2 cells [2] is given as “no toxicity; also recorded: not cytotoxic”. In the data set on H9c2 cells [3], the “protection against H2O2-mediated toxicity (CCK-8 viability)” value is recorded as “dose-dependent attenuation”. Also, in data set [4], the infarct size is reported as 16%.
